Molecules are shown by their SMILES. pIC50: −log10 of the molar value.

In this assay the target is CK2A1 (CK2α/β) (Homo sapiens, UniProt P68400). Put plainly: CK2 kinase assay, CK2A1 (CK2α/β). It counts as biochemical. The following applies: Table A; read-out: CK2A1 (CK2α/β) (IC50).
Sequence of CK2A1 (CK2α/β) (P68400 whole entry, species assumed): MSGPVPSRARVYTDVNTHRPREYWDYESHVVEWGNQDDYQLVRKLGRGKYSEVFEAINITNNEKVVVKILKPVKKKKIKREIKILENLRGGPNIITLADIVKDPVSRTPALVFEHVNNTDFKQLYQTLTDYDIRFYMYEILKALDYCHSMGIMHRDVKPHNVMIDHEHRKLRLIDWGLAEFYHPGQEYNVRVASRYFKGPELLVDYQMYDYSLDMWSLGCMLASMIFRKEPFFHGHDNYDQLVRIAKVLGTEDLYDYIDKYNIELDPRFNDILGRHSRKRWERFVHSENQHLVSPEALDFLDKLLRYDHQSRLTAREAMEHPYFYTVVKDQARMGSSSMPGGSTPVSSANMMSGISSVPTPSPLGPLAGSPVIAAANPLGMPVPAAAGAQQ
Sequence of CK2A1 (CK2α/β) (P67870 whole entry partner, species assumed): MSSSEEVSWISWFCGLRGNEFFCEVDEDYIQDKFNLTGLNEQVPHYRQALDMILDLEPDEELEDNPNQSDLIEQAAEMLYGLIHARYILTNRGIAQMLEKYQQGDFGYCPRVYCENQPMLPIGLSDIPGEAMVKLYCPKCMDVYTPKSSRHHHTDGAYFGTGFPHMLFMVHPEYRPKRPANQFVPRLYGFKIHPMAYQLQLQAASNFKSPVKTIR
`COC(=O)N[C@H]1C[C@H](O)CN(c2cc(C#N)cc(Nc3nc(NC4CC4)c4ncc(C#N)n4n3)c2Cl)C1` (racemic) [Example 17, (+/−) methyl ((3S,5S)-1-(2-chloro-5-cyano-3-((7-cyano-4-(cyclopropylamino)imidazo [2,1-f][1,2,4]triazin-2-yl)amino)phenyl)-5-hydroxy-3-piperidinyl)carbamate]: the pIC50 was 9.23.
`N#Cc1cc(Nc2nc(NC3CC3)c3ncc(C#N)n3n2)c(Cl)c(N2CCN(CC(F)F)CC2)c1` [Example 52, 2-((2-chloro-5-cyano-3-(4-(2,2-difluoroethyl)-1-piperazinyl)phenyl)amino)-4-(cyclopropylamino)imidazo[2,1-f][1,2,4]triazine-7-carbonitrile]: the pIC50 is 9.18.
`N#Cc1cc(Nc2nc(NC3CC3)c3ncc(C#N)n3n2)c(Cl)c(N2CCN(C(=O)OCC3CCCO3)CC2)c1` (stereo not shown) [Example 534, (tetrahydrofuran-2-yl)methyl 4-(2-chloro-5-cyano-3-((7-cyano-4-(cyclopropylamino)imidazo[2,1-f][1,2,4]triazin-2-yl)amino)phenyl)piperazine-1-carboxylate]: the pIC50 was 9.29.
In the case of `CC(C)(C)CC(=O)N1CCC(c2cc(C#N)cc(Nc3nc(NC4CC4)c4ncc(C#N)n4n3)c2Cl)CC1` [Example 235, 2-((2-chloro-5-cyano-3-(1-(3,3-dimethylbutanoyl)-4-piperidinyl)phenyl)amino)-4-(cyclopropylamino)imidazo[2,1-f][1,2,4]triazine-7-carbonitrile], the pIC50 is 8.41.
For the compound `CN1CC2(CCN(c3cc(C#N)cc(Nc4nc(NC5CC5)c5ncc(C#N)n5n4)c3Cl)CC2)CC1=O` (racemic) [Example 782, (+/−)-2-((2-chloro-5-cyano-3-(2-methyl-3-oxo-2,8-diazaspiro[4.5]decan-8-yl)phenyl)amino)-4-(cyclopropylamino)imidazo[2,1-f][1,2,4]triazine-7-carbonitrile], the pIC50 is 9.24.
`C[C@H](O)CC(=O)N1CC(N2CCN(c3cc(C#N)cc(Nc4nc(NC5CC5)c5ncc(C#N)n5n4)c3Cl)CC2)C1` [Example 514, 2-{[2-chloro-5-cyano-3-(4-{1-[(3S)-3-hydroxybutanoyl]azetidin-3-yl}piperazin-1-yl)phenyl]amino}-4-(cyclopropylamino)imidazo[2,1-f][1,2,4]triazine-7-carbonitrile]: the pIC50 is 8.41.
With `N#Cc1cc(Nc2nc(NC3CC3)c3ncc(C#N)n3n2)c(Cl)c(N2CCN(C3CNC3)CC2)c1` [Example 612, 2-({3-[4-(azetidin-3-yl)piperazin-1-yl]-2-chloro-5-cyanophenyl}amino)-4-(cyclopropylamino)imidazo [2,1-f][1,2,4]triazine-7-carbonitrile], the pIC50 is 9.37.
Regarding `N#Cc1cc(Nc2nc(NC3CC3)c3ncc(C#N)n3n2)c(Cl)c(N2CCC3CCNC3C2)c1` (racemic) [Example 454, (+/−)-2-((2-chloro-5-cyano-3-(hexahydro-1H-pyrrolo[2,3-c]pyridin-6(2H)-yl)phenyl)amino)-4-(cyclopropylamino)imidazo[2,1-f][1,2,4]triazine-7-carbonitrile], the pIC50 is 8.90.
Consider `N#Cc1cc(Nc2nc(NC3CC3)c3ncc(C#N)n3n2)c(Cl)c(C(O)C2CCNCC2)c1` (stereo not shown) [Example 654, 2-((2-chloro-5-cyano-3-(hydroxy(piperidin-4-yl)methyl)phenyl)amino)-4-(cyclopropylamino)imidazo[2,1-f][1,2,4]triazine-7-carbonitrile], for which the pIC50 is 8.57.
In the case of `CN(CCNC1COC1)c1cc(C#N)cc(Nc2nc(NC3CC3)c3ncc(C#N)n3n2)c1Cl` [Example 51, 2-((2-chloro-5-cyano-3-(methyl(2-(3-oxetanylamino)ethyl)amino)phenyl)amino)-4-(cyclopropylamino)imidazo [2,1-f][1,2,4]triazine-7-carbonitrile], the pIC50 was 8.61.

Source of the values: patent publication US9273057B2 (Bristol-Myers Squibb Company, priority 2012, dated 2016).
